Results from patent US20150141349A1, “Method and Composition for Alleviating Tumor Symptoms” (Angiogene Pharmaceuticals Ltd., priority 2012, published 2015).
Several values for one entry are separate records, joined by “and”; a condition that tells them apart may be missing. Equal values may be shown once.

Columns and labels:
carcinoid metastases = conditions: compared with 55% for hepatic artery embolization; cited from earlier work
neuroendocrine tumor = conditions: prolonged treatment, in combination with octreotide (Yao et al. 2008); cited from earlier work
[1] = tested on: Pancreatic Endocrine Tumors; assay: Serum insulin (ELISA) in Pdx1-Cre:Men1floxed/floxed mice treated with CA4P; format: in vivo
Protocol: Eight Pdx1-Cre:Men1floxed/floxed mice (described in Shen et al. Cancer Res. 2009, 69(5):1858-66) were divided into treated group (n=4) and control group (n=4). In an ongoing experiment, the mice from the treated group and control group were injected i.p. daily with CA4P (100 mg/kg) and saline, respectively, for three days monthly. The mice underwent a 24 h fast prior to collecting whole blood via a retro-orbital bleeding technique weekly at pre- and post-treatment. Glucose levels were monitored by enzymatic colorimetric assay. All mice underwent a microPET/CT scan monthly. Anti-tumor activity was measured by standardized-uptake value (SUV) analysis. All mice were weighed three times per week as an indicator of toxicity.

[2] = tested on: GH3 pituitary tumor cells; assay: Tumor necrosis in GH3 tumors (prolactinomas) after CA4P (H&E histology, image analysis); format: in vivo, rat
Protocol: (§1) Eighteen female Wistar Furth rats (Charles River, France), weighing approximately 130-140 g, were inoculated subcutaneously in the flanks with 1×10^6 GH3 pituitary tumor cells. Tumors were typically used for experimentation when they reached approximately 1 cm in diameter, or 300-1000 mm^3. Blood was taken from the tail vein of each rat 24 h before treatment with 100 mg/kg of vascular disrupting agent, CA4P, formulated in 20% of 5% aqueous sodium bicarbonate in 80% phosphate buffered saline. The CA4P was administered as a bolus injection through the tail vein. 24 h or 48 h after treatment a further blood sample was taken from the tail vein and the rats euthanized. Tumors were excised, fixed in formalin and stained with H&E for histology. Necrosis was determined by image analysis (Image J).

[3] = tested on: GH3 pituitary tumor cells; assay: Prolactin and growth hormone (ELISA) in GH3 tumor-bearing rats treated with CA4P; format: in vivo, rat; set-up: tumor GH pre- / tumor GH post-: unit not given beside the values; conditions: for Growth Hormone tumor-derived: historical background 46 ng/ml subtracted; for Prolactin tumor-derived: historical basal level 26 ng/ml subtracted; for GH % decrease: tumor-derived GH
Protocol: as §1
Prolactin and growth hormone were measured using commercial ELISA's (SPI/BIO Bertin Pharma/Cayman kits sourced from Bioquote Limited, York, UK). Tumor-derived prolactin levels were calculated assuming a historical basal level of 26 ng/ml. […] Tumor-derived growth hormone levels were calculated by subtracting a historical value for background growth hormone of 46 ng/ml. […] All measurements for the control group were performed 24 hours after injection of saline.

[4] = tested on: GH3 pituitary tumor cells; assay: Tumor necrosis in GH3 rat pituitary tumors after ZD6126 (H&E histology, image analysis); format: in vivo; conditions: individual rats; 24 h after 50 mg/kg ZD6126 bolus tail vein
Protocol: (§2) Four female Wistar Furth rats, weighing approximately 160 g, were inoculated subcutaneously in the flanks with GH3 pituitary tumor cells. Tumors were typically used for experimentation when they reached approximately 1000-3000 mm^3. Blood was taken from the tail vein of each rat 24 h before treatment with 50 mg/kg of vascular disrupting agent, ZD6126, formulated in 20% of 5% aqueous sodium bicarbonate in 80% phosphate buffered saline. The vascular disrupting agent was administered as a bolus injection through the tail vein. 24 h after treatment a further blood sample was taken from the tail vein and the rats euthanized. Tumors were excised, fixed in formalin and stained with H&E for histology. Necrosis was determined by image analysis (Image J). Blood samples were analyzed for prolactin and growth hormone at by ELISA using kits supplied by SPIbio.

[5] = tested on: GH3 pituitary tumor cells; assay: Circulating growth hormone and prolactin (ELISA) in GH3 tumor-bearing rats treated with ZD6126; format: in vivo, rat; set-up: Growth Hormone pre / Growth Hormone post / Prolactin pre / Prolactin post: unit not given beside the values
Protocol: as §2
Since control animals had significant levels of both hormones (within the normal range) and since the VDA could not be expected to reduce normal host hormone production it might be reasonable to subtract a figure from each reading to allow for the persisting host-derived hormone. Although data on normal hormone levels were derived from a single control (non-tumor bearing) animal, the values are very much in agreement with those reported in the literature. Subtracting this value would give a rough estimate of the reduction in rats 1 and 2 of tumor-derived growth hormone of 72% and 40% and a reduction in tumor-derived prolactin of 65% and 33% respectively.

[6] = 24 h after 100 mg/kg CA4P, individual rats
[7] = 48 h after 100 mg/kg CA4P, individual rats
[8] = 24 h after 50 mg/kg ZD6126, individual rats, ±SD
[9] = baseline, blood 24 h before ZD6126 treatment, individual rats, ±SD
[10] = pre vs 24 h after 50 mg/kg ZD6126, individual rats
[11] = rats 1 and 2, rough estimate after subtracting value of tumor-free control

COc1cc2ncnc(Nc3ccc(F)c(Cl)c3)c2cc1OCCCN1CCOCC1 [gefitinib]
response rate (Phase II trials) (carcinoid metastases): 2%

bevacizumab: anti-VEGF antibody
neuroendocrine tumor patients achieving a meaningful reduction in urinary 5-HIAA (neuroendocrine tumor): 19% | patients achieving a reduction in plasma levels of chromogranin A (neuroendocrine tumor): 6% | response rate (Phase II trials) (carcinoid metastases): 18%

COc1ccc(/C=C\c2cc(OC)c(OC)c(OC)c2)cc1OP(=O)(O)O [CA4P, combretastatin A-4 phosphate]
Serum Insulin ([1]; Day 0 (baseline), CA4P group n=4, P vs PBS 0.6720): 3.695 ± 0.669 µg/L | Serum Insulin ([1]; Day 4, CA4P 100 mg/kg i.p. daily for three days, 24 h fast, P vs PBS 0.3699): 3.060 ± 1.037 µg/L | Serum Insulin ([1]; Day 11, CA4P 100 mg/kg i.p. daily for three days, 24 h fast, P vs PBS 0.0350): 2.495 ± 0.8722 µg/L | % tumor necrosis ([2]; 24 h after 100 mg/kg CA4P, group mean): 43.7 ± 29.6% | % tumor necrosis [2, 6]: 83% and 58% and 3% and 59% (2×) | % tumor necrosis ([2]; 48 h after 100 mg/kg CA4P, group mean): 61.7 ± 27.4% | % tumor necrosis [2, 7]: 77% and 30% | Prolactin total ([3]; 24 h after 100 mg/kg CA4P bolus tail vein, n=6): 64.6 ± 19.1 ng/ml ± SD | Growth Hormone tumor-derived ([3]; 24 h after 100 mg/kg CA4P, n=6): 29.1 ± 13.6 ng/ml ± SD | Prolactin tumor-derived ([3]; 24 h after 100 mg/kg CA4P, n=6): 38.6 ± 19.1 ng/ml ± SD | tumor GH post- [3, 6]: 15.8 and 29.1 and 48.4 and 19.2 and 42.4 | GH % decrease [3, 6]: 63.2% and 36.0% and 21.6% and 50.0% and 6.2% | Growth Hormone total ([3]; 24 h after 100 mg/kg CA4P, n=6): 75.1 ± 13.6 ng/ml ± SD | Growth Hormone tumor-derived ([3]; 48 h after 100 mg/kg CA4P, n=2): 20.8 ± 7.8 ng/ml ± SD | Prolactin tumor-derived ([3]; 48 h after 100 mg/kg CA4P, n=2): 28.3 ± 20.2 ng/ml ± SD | tumor GH post- [3, 7]: 15.3 and 26.3 | GH % decrease [3, 7]: 64.1% and 35.2% | Growth Hormone total ([3]; 48 h after 100 mg/kg CA4P, n=2): 66.8 ± 7.8 ng/ml ± SD | Prolactin total ([3]; 48 h after 100 mg/kg CA4P, n=2): 54.3 ± 20.2 ng/ml ± SD | tumor GH pre- ([3]; baseline before CA4P, individual rats, tumor-derived growth hormone): 42.9 and 45.5 and 61.7 and 38.4 and 45.2 and 42.6 and 40.6 | total and tumor-derived growth hormone after treatment (in words) ([3]; p<0.03, one-tailed t-test): statistically lower amount | total and tumor-derived prolactin after treatment (in words) ([3]; p<0.04, one-tailed T-test): statistically lower amount

Clc1ccc(Nc2nnc(Cc3ccncc3)c3ccccc23)cc1 [valatinib]
response rate (Phase II trials) (carcinoid metastases): 0%

COc1cc2c(c(OC)c1OC)-c1ccc(OP(=O)(O)O)cc1[C@@H](NC(C)=O)CC2 [ZD6126]
% necr. (tumor necrosis) [4]: 39% and 42% and little or no necrosis and 0% | Growth Hormone post [5, 8]: 91 ± 7 and 102 ± 4 and 204 ± 14 and 171 ± 11 | Prolactin post [5, 8]: 90 ± 2 and 78 ± 3 and 129 ± 5 and 52 ± 1 | Growth Hormone pre [5, 9]: 214 ± 11 and 139 ± 8 and 193 ± 4 and 146 ± 4 | Prolactin pre [5, 9]: 211 ± 28 and 104 ± 3 and 134 ± 17 and 53 ± 3 | Growth Hormone Δ (percent reduction) [5, 10]: 57 and 26 and −5 and −16 | Prolactin Δ (percent reduction) [5, 10]: 57 and 24 and 4 and 1 | reduction in tumor-derived prolactin [5, 11]: ~65% and ~33% | reduction of tumor-derived growth hormone [5, 11]: ~72% and ~40%

CNC(=O)c1cc(Oc2ccc(NC(=O)Nc3ccc(Cl)c(C(F)(F)F)c3)cc2)ccn1 [sorafenib]
response rate (Phase II trials) (carcinoid metastases): 10%

CO[C@H]1C[C@@H]2CC[C@@H](C)[C@@](O)(O2)C(=O)C(=O)N2CCCC[C@H]2C(=O)O[C@H]([C@H](C)C[C@@H]2CC[C@@H](OCCO)[C@H](OC)C2)CC(=O)[C@H](C)/C=C(\C)[C@@H](O)[C@@H](OC)C(=O)[C@H](C)C[C@H](C)/C=C/C=C/C=C/1C [everolimus]
response rate (Phase II trials) (carcinoid metastases): 13%

Cc1ccc(NC(=O)c2ccc(CN3CCN(C)CC3)cc2)cc1Nc1nccc(-c2cccnc2)n1 [imatinib]
response rate (Phase II trials) (carcinoid metastases): 4%
